These results are taken from US11505556B2, “Halogenated derivatives of morphinans and uses thereof” (Xalud Therapeutics, Inc., priority 2017, dated 2022).

Each structure is given as a SMILES string. Where “and” joins values, the source holds several entries; their conditions need not be identical. Equal values may be shown once. Read-outs that look alike come from different tables or passages of the source. Bounds are passed on as bounds.

A short description of data set [1]: in vitro. Conditions: dog, cultured hepatocytes.
The test system of data set [2] is TLR4 (LPS-stimulated NO production, BV-2 mouse microglia cell line). Kind of data set: NO assay: inhibition of LPS-induced NO production in BV-2 microglia (iNOS cellular). It is filed as cell-based. Conditions: Mus musculus. The source says:
NO assay: Microglia are the resident cells of the innate immune system in the central nervous system, and TLR4 is primarily expressed by microglia rather than astrocytes or neurons in the CNS. Given this expression profile, the BV-2 mouse microglia cell line was used as the model system of microglia, as these cells recapitulate many of the responses of primary microglia with high fidelity. TLR4 activation induces the downstream production of the inflammatory factor NO, which contributes to the development of neuropathic pain and drug addiction. BV-2 murine microglia were grown in supplemented DMEM (including 10% FBS, 50 unit mL^−1 penicillin, 50 μg·mL^−1 streptomycin). BV-2 cells were detached from the flask by trypsin digestion when ˜80% confluence was reached. Cells were seeded at a density of 4×10^4 cells per well in 96-well plates. After overnight incubation, media was aspirated and changed to DMEM media without FBS. Cells were then treated with LPS (200 ng/ml) and different concentrations of the testing compounds. After 24 h treatment, 100 μL of supernatant media was removed after cells were treated for 24 h and added to flat black 96-well microfluor plates (Thermo Scientific, MA, USA). Subsequently, 10 μL of 2, 3-diaminonaphthalene (0.05 mg·mL^−1 in 0.62 M HCl) was added to each well and incubated for 15 min. The reaction was quenched by addition of 5 μL of 3 M NaOH and the plate was read on a Beckman Coulter DTX880 reader (Fullerton, Calif., USA) with excitation at 360 nm and emission at 430 nm.
N chain NTX: This experimentation involved an in vitro assay where mouse BV2 cells were treated with LPS, which results in the release of nitric oxide (NO). Blockade of TLR4 activity results in reduced NO production. Therefore, IC50 values were determined for test compounds that antagonize TLR4 activity. A series of test compounds were prepared, with different N-alkyl chains replacing the cyclopropyl methyl found in naltrexone. Cell viability was also measured by a standard assay, e.g., measurement of the release of cytoplasm-resident enzymes in the tissue culture supernatant or media to detect cell loss/lysis/rupture. A dose-inhibition curve was generated by testing the TLR4 antagonist compound for the ability to block LPS-stimulated iNOs induction. In FIG. 7, the inhibition levels across a range of doses are graphed, along with a regression curve. The IC50 value—50% inhibition level—is also provided, graphed against the length of the alkyl chain. Note that with longer N-alkyl chain the IC50 was reduced, although cell viability became problematic.
FIGS. 8B to 8D show the results of the inhibition of NO production from LPS-stimulated BV2 cells using the assay described above.

The target of the next data set is Cannabinoid CB1 (Homo sapiens, UniProt P21554). Description: Off-target screening. Type of data set: binding. The source says:
(§1) In addition to the animal studies presented above in Examples 1-9, the results of in vitro testing of several of the compounds (i.e., XT-203, XT-204, and XT-206 through XT-217) are shown in Table 5 and Table 6. […]. Nine additional compounds had two or fewer off-target hits in the screening. […] These compounds spanned all of the tested N-modification classes. […]. Thus, the medicinal chemistry approach taken in this series of fluorinated compounds can yield low off-target activity and longer metabolic lifetime while preserving TLR4 antagonism. It is appreciated that further development of compounds in this class, using techniques known to those skilled in the art, may yield additional compounds with desirable pharmacologic and toxicologic characteristics.

In the next data set the target is Adenosine A2A (Homo sapiens, UniProt P29274). Kind of data set: Off-target screening. Type of data set: binding.
Sequence of Adenosine A2A (P29274 whole entry): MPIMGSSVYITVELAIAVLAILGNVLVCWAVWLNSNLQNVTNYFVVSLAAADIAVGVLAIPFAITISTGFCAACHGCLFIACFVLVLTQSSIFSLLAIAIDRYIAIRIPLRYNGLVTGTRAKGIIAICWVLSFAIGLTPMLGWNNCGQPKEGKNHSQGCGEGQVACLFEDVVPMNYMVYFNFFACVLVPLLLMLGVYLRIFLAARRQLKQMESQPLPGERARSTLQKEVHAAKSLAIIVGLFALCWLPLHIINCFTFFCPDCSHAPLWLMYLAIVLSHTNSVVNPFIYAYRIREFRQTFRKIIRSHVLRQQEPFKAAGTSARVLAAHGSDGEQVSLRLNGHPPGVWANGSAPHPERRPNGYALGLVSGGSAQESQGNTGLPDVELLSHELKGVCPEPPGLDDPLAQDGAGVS
Excerpt: as §1

A further data set has as its target iNOS (Homo sapiens, UniProt P35228). Description: iNOS enzyme inhibition. Type of data set: biochemical.
Data set [3] is described as follows: in vitro. Conditions: mouse, hepatocytes.
Another data set concerns the target hERG (Homo sapiens, UniProt Q12809). Kind of data set: hERG inhibition. For orientation: Block of hERG is tested as a sign of cardiac risk.
A short description of data set [4]: in vitro. Conditions: rat, cultured hepatocytes.
The subject of data set [5] is off-target screening panel. Kind of data set: Off-target inhibition screening (whole panel). Conditions: 10 μM test concentration; hit = inhibition at or above the 50% level.
Excerpt: as §1

Data set [6] in a line: in vitro. Conditions: human, cultured hepatocytes.
Data set [7] can be described thus: in vitro. Conditions: monkey, cultured hepatocytes.
A short description of data set [8]: Hepatocyte elimination of parent compound, spread across species. Conditions: mouse, rat, dog, monkey, human, hepatocytes; lowest to highest species value; read-out: range of hepatocyte elimination half-life values across species. Type of data set: in vitro ADME. On the procedure:
Hepatocyte Elimination: (+)-NTX, AK-17 and XT-203 were incubated with cultured hepatocytes from the species listed in FIG. 9 and Table 4, and samples of the culture supernatant were collected over time. Samples were concentrated by nitrogen drying followed by reconstitution with 40% methanol for LC/MS analysis The data points were analyzed using the WinNonLin pharmacokinetics software package, and a half-life was determined that describes the rate of parent elimination. […].
as §1

The target of data set [9] is Protein tyrosine kinase LCK (Homo sapiens, UniProt P06239). Description: Off-target screening. It is filed as biochemical.
Excerpt: as §1

In the next data set the test system is Human hepatocytes. Description: Hepatocyte elimination of parent compound. Conditions: cultured hepatocytes.
The target in the next data set is Adrenergic α1D (Homo sapiens, UniProt P25100). Kind of data set: Off-target screening. Type of data set: binding.
Excerpt: as §1

In a further data set the test system is Sodium channel site 2. Description: Off-target screening. It is filed as binding.
Excerpt: as §1

The next data set concerns Adrenergic α1B. Kind of data set: Off-target screening. It is filed as binding.
Excerpt: as §1

The target of data set [10] is Transporter, Norepinephrine (NET) (Homo sapiens, UniProt P23975). Description: Off-target screening. It is filed as binding.
Sequence of Transporter, Norepinephrine (NET) (P23975 whole entry): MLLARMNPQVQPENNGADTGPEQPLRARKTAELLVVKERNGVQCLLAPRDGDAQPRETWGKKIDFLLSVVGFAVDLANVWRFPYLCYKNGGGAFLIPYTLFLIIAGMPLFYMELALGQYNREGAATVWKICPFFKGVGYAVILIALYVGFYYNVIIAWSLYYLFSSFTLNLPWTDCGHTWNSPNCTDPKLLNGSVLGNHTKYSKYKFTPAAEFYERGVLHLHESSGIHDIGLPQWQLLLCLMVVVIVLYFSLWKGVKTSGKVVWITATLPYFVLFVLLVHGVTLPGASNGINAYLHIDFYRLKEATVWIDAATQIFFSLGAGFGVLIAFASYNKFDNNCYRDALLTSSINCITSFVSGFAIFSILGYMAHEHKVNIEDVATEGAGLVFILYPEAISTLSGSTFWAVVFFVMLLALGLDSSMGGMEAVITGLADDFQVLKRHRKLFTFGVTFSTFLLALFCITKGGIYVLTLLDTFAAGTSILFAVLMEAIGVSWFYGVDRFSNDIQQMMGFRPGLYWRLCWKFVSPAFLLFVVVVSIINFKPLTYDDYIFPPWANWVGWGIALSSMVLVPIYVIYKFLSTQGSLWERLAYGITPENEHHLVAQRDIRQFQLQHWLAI
Excerpt: as §1

The next data set concerns the target Dopamine D2S (Homo sapiens, UniProt P14416). Description: Off-target screening. Type of data set: binding.
Excerpt: as §1

The test system of data set [11] is Calcium channel L-Type, phenylalkylamine. Description: Off-target screening. Type of data set: binding.
Excerpt: as §1

For a further data set, the target named is Dopamine D2L (Homo sapiens, UniProt P14416). Description: Off-target screening. Type of data set: binding.
Sequence of Dopamine D2L (P14416 whole entry): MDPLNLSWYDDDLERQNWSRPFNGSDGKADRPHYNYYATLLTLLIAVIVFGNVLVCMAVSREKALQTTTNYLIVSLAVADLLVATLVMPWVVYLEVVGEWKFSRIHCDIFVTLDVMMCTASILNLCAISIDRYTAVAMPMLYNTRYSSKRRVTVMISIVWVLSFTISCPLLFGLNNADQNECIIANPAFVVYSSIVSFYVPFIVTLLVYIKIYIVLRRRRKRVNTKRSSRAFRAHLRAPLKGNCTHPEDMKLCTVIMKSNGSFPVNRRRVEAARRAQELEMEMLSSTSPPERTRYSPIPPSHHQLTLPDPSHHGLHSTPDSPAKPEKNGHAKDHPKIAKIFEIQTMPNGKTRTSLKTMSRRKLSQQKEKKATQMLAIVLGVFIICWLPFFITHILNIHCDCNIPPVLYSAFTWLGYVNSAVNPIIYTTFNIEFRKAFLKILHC
Excerpt: as §1

A further data set concerns the target Adrenergic α2B (Homo sapiens, UniProt P18089). Kind of data set: Off-target screening. Type of data set: binding.
Excerpt: as §1

The target in the next data set is T1, Adrenergic α2A (Homo sapiens, UniProt P08913).
T1 sequence (P08913 1-465): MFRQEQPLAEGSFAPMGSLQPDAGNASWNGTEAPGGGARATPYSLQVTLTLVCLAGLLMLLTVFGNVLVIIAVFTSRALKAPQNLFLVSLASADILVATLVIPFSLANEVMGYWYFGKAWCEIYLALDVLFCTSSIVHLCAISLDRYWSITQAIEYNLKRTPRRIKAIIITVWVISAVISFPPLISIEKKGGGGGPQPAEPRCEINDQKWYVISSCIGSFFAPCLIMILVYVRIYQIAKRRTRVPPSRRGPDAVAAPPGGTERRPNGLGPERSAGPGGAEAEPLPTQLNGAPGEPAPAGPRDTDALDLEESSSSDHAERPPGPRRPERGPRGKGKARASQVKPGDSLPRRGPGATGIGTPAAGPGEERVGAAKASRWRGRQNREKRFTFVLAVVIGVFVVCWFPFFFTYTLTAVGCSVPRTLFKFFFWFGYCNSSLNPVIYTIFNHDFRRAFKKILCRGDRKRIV
Description: Off-target screening. It is filed as binding. Conditions: 10 μM.
Excerpt: as §1

The next data set concerns the target Opiate κ (OP2, KOP) (Homo sapiens, UniProt P41145). Description: Off-target screening. It is filed as binding.
Excerpt: as §1

In the next data set the target is Histamine H2 (Homo sapiens, UniProt P25021). Description: Off-target screening. Type of data set: binding.
Excerpt: as §1

A further data set has as its system Adrenergic α1A. Kind of data set: Off-target screening. Type of data set: binding.
Excerpt: as §1

In another data set the target is Opiate μ (OP3, MOP) (Homo sapiens, UniProt P35372). Description: Off-target screening. It is filed as binding.
Excerpt: as §1

The next data set has as its target Tachykinin NK1 (Homo sapiens, UniProt P25103). Description: Off-target screening. Type of data set: binding.
Excerpt: as §1

Data set [12] has as its system Calcium channel L-Type, benzothiazepine. Kind of data set: Off-target screening. Type of data set: binding.
Excerpt: as §1

Another data set deals with Progesterone, PR-B (Homo sapiens, UniProt P06401). Kind of data set: Off-target screening. It is filed as binding.
Excerpt: as §1

In the next data set the target is Vasopressin V1A (Homo sapiens, UniProt P37288). Description: Off-target screening. It is filed as binding.
Excerpt: as §1

The target of data set [13] is Transporter, Dopamine (DAT) (Homo sapiens, UniProt Q01959). Description: Off-target screening. It is filed as binding.
Excerpt: as §1

Another data set has as its system Transporter, Adenosine. Description: Off-target screening. Type of data set: binding.
Excerpt: as §1

Data set [14] concerns GABA A, chloride channel, TBOB. Description: Off-target screening. Type of data set: binding.
Excerpt: as §1

Setting [15] is: Microglia, Table 6, unit inferred, footnote: Indicator of TL4 antagonism.
The mark [16] stands for this setting: LPS (200 ng/ml), 24 h, BV-2 cells, Table 3.
Where [17] appears, read: read-out: iNOS enzyme, Table 6, unit inferred.

Sequence of Cannabinoid CB1 (P21554 whole entry): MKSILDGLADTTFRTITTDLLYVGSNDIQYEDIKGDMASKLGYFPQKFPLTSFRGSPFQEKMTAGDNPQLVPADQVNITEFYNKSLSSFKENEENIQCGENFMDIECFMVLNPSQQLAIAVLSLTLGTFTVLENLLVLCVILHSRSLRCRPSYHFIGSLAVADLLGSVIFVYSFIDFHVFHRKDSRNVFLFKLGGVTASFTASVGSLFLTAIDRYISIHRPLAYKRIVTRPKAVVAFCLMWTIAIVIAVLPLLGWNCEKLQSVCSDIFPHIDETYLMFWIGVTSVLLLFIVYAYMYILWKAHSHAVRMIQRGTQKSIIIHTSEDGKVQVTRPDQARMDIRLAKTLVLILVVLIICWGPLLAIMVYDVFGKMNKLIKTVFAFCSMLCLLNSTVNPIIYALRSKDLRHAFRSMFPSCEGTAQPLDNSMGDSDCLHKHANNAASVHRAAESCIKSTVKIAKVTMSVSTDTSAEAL
Sequence of hERG (Q12809 whole entry): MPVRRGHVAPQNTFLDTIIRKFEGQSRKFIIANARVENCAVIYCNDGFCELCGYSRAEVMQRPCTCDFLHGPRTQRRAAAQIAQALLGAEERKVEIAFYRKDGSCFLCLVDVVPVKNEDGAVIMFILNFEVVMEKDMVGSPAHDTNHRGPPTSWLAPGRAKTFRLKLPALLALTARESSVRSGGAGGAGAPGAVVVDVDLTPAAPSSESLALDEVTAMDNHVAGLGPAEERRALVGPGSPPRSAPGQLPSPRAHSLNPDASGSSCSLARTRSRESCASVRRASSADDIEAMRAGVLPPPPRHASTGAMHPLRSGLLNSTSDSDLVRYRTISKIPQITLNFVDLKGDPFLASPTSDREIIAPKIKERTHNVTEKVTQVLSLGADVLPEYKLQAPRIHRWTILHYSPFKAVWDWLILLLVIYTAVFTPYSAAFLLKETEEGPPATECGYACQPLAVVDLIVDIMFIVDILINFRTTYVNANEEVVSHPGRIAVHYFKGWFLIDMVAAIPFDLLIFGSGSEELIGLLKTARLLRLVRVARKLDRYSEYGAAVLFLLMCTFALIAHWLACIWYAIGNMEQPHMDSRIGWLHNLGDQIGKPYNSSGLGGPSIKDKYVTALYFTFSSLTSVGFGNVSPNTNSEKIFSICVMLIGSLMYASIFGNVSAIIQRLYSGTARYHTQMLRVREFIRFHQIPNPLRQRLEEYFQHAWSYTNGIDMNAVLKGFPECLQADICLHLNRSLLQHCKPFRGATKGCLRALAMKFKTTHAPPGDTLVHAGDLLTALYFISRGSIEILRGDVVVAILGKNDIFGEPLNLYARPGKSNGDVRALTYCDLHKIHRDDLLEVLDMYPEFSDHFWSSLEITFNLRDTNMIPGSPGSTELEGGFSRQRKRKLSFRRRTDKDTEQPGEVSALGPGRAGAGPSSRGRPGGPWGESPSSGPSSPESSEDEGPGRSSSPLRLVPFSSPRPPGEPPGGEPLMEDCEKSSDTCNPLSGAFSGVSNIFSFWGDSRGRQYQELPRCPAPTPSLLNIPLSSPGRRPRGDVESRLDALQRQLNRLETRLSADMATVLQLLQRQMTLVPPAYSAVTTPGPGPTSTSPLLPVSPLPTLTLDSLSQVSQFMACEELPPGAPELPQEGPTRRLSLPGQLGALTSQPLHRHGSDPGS
Sequence of iNOS (P35228 whole entry): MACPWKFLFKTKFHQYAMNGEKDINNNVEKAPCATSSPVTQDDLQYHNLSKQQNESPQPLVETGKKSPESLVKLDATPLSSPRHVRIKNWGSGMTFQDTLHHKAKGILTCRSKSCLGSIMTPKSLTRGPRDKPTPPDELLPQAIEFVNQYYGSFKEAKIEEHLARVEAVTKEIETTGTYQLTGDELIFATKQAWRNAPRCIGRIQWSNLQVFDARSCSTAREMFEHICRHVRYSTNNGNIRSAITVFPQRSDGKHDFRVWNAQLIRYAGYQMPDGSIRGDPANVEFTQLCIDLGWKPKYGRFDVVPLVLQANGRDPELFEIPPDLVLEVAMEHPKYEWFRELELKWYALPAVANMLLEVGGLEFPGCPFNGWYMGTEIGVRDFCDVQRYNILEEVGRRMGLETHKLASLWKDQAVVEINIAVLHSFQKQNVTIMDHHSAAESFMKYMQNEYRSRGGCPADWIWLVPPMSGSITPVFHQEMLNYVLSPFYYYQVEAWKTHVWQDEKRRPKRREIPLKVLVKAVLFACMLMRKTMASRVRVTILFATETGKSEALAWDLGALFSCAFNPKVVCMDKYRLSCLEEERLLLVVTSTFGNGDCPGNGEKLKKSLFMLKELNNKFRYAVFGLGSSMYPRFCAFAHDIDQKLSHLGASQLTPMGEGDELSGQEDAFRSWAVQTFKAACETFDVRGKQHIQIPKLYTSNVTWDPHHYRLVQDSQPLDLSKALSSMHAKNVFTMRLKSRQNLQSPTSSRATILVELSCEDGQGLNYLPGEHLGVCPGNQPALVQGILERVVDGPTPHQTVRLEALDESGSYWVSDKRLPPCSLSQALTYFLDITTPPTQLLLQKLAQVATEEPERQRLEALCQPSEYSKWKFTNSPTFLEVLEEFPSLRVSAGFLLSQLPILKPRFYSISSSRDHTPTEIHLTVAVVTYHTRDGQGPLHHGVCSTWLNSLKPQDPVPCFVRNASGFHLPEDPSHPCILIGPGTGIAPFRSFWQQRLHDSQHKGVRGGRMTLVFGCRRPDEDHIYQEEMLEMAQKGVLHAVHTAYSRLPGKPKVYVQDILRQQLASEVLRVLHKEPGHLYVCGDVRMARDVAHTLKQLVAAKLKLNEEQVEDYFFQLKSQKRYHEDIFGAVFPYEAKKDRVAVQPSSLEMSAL
Sequence of Opiate κ (OP2, KOP) (P41145 whole entry): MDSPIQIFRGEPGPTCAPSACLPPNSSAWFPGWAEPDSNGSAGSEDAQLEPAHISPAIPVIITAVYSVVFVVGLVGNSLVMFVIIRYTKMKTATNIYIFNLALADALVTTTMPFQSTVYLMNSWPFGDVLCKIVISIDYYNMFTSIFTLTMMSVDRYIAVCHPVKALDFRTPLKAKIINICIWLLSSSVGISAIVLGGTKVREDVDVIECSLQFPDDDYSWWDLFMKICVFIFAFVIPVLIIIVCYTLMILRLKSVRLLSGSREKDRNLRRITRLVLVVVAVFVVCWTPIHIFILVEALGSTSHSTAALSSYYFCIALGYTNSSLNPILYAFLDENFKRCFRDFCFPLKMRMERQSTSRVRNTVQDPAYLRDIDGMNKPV
Sequence of Tachykinin NK1 (P25103 whole entry): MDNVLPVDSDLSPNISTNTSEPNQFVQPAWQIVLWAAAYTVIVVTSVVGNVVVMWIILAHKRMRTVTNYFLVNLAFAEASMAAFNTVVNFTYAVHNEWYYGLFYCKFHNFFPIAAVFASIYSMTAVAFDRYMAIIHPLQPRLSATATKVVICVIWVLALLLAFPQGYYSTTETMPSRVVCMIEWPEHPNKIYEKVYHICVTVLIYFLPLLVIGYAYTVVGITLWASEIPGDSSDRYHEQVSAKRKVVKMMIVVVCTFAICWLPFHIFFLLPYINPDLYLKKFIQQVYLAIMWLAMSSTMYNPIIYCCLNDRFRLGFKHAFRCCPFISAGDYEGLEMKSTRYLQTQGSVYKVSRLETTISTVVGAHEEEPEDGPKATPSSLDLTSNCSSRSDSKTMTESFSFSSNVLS

One may read the half-life as how long it takes for the measured level to halve. One may read the inhibition as the change of the read-out against control, counted positive when it falls. As for `COc1ccc2c3c1O[C@@H]1C(F)CCC4[C@H](C2)N(S(=O)(=O)c2ccccc2)CC[C@]341` (stereo partly shown) [XT-208], the half-life in “in vitro [1]” was 14.6 min; in the data set “in vitro [3]”, 10.9 min; in “in vitro [4]”, 12.7 min; in “in vitro [6]”, 19.7 min; in “in vitro [7]”, 8.7 min; in data set [8], 8.7 to 19.7 min. The IC50 (in data set [2] (setting [15]); in data set [2] (setting [16]); on iNOS; on iNOS (setting [17]); against hERG) was more than 10 µM each time. For the same molecule, the figures for the inhibition at 10 µM against Cannabinoid CB1 and at Adenosine A2A were 54% and 64%, respectively. Besides, the “off-target hits in the screening” value in [5] is “two off-target hits”.
In the case of `COc1ccc2c3c1O[C@@H]1C(F)CCC4[C@H](C2)N(S(C)(=O)=O)CC[C@]341` (stereo partly shown) [XT-209], the half-life in the data set “in vitro [1]” was 89 min; in the data set “in vitro [3]”, 22.4 min; in “in vitro [4]” it was 15.3 min; in “in vitro [6]” it was 296 min; in “in vitro [7]”, 39.4 min; in [8], 15.3 to 296 min. For the same molecule, the IC50 (in [2] (setting [15]); in [2] (setting [16]); against iNOS; on iNOS (setting [17]); at hERG) was more than 10 µM in each case. The inhibition at 10 µM in [9] was 61%. Also, the “off-target hits in the screening” value in data set [5] was “one off-target hit”. For the same molecule, the “parent duration in human hepatocytes relative to XT-203” value in the data set on Human hepatocytes is given as “longer parent duration than XT-203”.
One may read the % Inhibition as the drop in the measured response relative to a control, in per cent. With `COc1ccc2c3c1O[C@@H]1C(F)CCC4[C@H](C2)N(C(C)Cc2ccccc2)CC[C@]341` (stereo partly shown) [XT-215], the half-life in “in vitro [1]” was 19.6 min; in “in vitro [3]” it was 20.7 min; in the data set “in vitro [4]”, 12.7 min; in the data set “in vitro [6]”, 65.6 min; in “in vitro [7]” it was 22.1 min. In addition, the IC50 in data set [2] (setting [15]) is more than 10 µM; in [2] (setting [16]) it was more than 10 µM; on hERG (human), 10 µM. Moreover, the inhibition at 10 µM on Cannabinoid CB1 was determined as 57%; at Adrenergic α1D it was 92%; in [10], 61%; against Dopamine D2S, 81%; against Dopamine D2L, 65%; at Adrenergic α2B, 105%. Moreover, the inhibition at 10 µM against Adrenergic α2A was 96%; against Opiate κ (OP2, KOP), 79%; on Histamine H2, 82%; at Opiate μ (OP3, MOP), 79%; on Tachykinin NK1, 55%; on hERG (human, read-out: hERG inhibition, percent), 51%. Moreover, the “% Inhibition at 10 μM, Sodium channel site 2” value with Sodium channel site 2 was found to be 101%. Besides, in the data set with Adrenergic α1B, the “% Inhibition at 10 μM, Adrenergic α1B” value was 99%. Besides, the “% Inhibition at 10 μM, Calcium channel L-Type phenylalkylamine” value in data set [11] was 73% and 51%. Moreover, the “% Inhibition at 10 μM, Adrenergic α1A” value in the data set on Adrenergic α1A is 85% and 99%. Besides, the “% Inhibition at 10 μM, Calcium channel L-Type, benzothiazepine” value in data set [12] was 51% and 73%.
`COc1ccc2c3c1O[C@@H]1C(F)CCC4[C@H](C2)N(C(=O)C(C)(C)c2ccccc2)CC[C@]341` (stereo partly shown) [XT-216]: the half-life was 17.1 min in “in vitro [1]”; 20.8 min in the data set “in vitro [3]”; 11.3 min in “in vitro [4]”; 31.5 min in the data set “in vitro [6]”; 10.6 min in “in vitro [7]”. In addition, the IC50 (in data set [2] (setting [15]); in data set [2] (setting [16]); against hERG) was more than 10 µM each time. Moreover, the inhibition at 10 µM turned out to be 82% against Cannabinoid CB1; 50% on Progesterone, PR-B; 69% against Vasopressin V1A; 59% in [10]; 57% against Adenosine A2A; 52% in data set [13]. For the same molecule, the inhibition at 10 µM at Opiate κ (OP2, KOP) came out at 69%. Besides, the “% Inhibition at 10 μM, Transporter, Adenosine” value in the data set on Transporter, Adenosine is 60%. Further, the “% Inhibition at 10 μM, GABA A, chloride channel, TBOB” value in data set [14] is given as 54%.
